Measured values reported in paper PMC3199867, “Targeting surface nucleolin with multivalent HB-19 and related Nucant pseudopeptides results in distinct inhibitory mechanisms depending on the malignant tumor cell type” (BMC Cancer, 2011).

Legend:
[1] = system: CHO K1 cells; test: Midkine (MK) internalization, confocal immunofluorescence; assay type: cell-based, Chinese hamster; conditions: CHO K1, pretreatment 5 μM 30 min at 20°C, then MK 0.2 μM 90 min at 37°C
Method: (§1) CHO K1 and CHO 13 cells (as in the Additional file 2, Figure 3S) were incubated with 0.2 µM Midkine (MK) for 90 min at 37°C or at 20°C before fixation with PFA. In sections C and E, cells were first incubated (30 min at 20°C) with 5 µM HB-19 before addition of MK (0.2 µM) and further incubation at 37°C for 90 min. […] Experimental conditions for confocal immunofluorescence microscopy were as described previously.

[2] = system: CHO 13 cells (LRP-1 null); test: as above; assay type: cell-based, Chinese hamster; conditions: CHO 13 (LRP-1 null), pretreatment 5 μM 30 min at 20°C, then MK 0.2 μM 90 min at 37°C
Method: as §1

[3] = system: T29; test: Cell growth / multiplication (viable cell number); assay type: cell-based, murine; conditions: for multiplication index of cells at day 3 compared to day 0: T29 seeded at 150,000 cells/ml, 20 μM (pentavalent), triplicate, control 17.5-fold
Method: (§2) Human breast (MDA-MB-231, MDA-MB-435 [37]), prostate (LNCaP, from American Type Culture Collection, ATCC, Rockville, MD), and cervical (HeLa) epithelial cancer cells were grown in DMEM-glutamax medium (Gibco Invitrogen, Cergy-Pontoise, France) containing GlutaMAX™, 4.5 g/l glucose and supplemented with 10% heat-inactivated (56°C for 30 min) fetal bovine serum (FBS; Hyclone, Thermo Fisher Scientific, Inc). Human SW480 cells are derived from a grade 3-4 colon carcinoma, while the highly metastatic counterpart SW620 is established from the lymph node of a person. Both SW480 and SW620 cells (obtained from Francis Raul, IRCAD) are highly tumorigenic in nude mice. They were cultured in D-MEM, 10% FCS. The murine melanoma TIII cell line was obtained from Armelle Prévost-Blondel. Murine T29 lymphoma cells, obtained from Philippe Kastner (CNRS, Strasbourg), have been established from Ik^L/L tumors from mice carrying a hypomorphic mutation (Ik^L/L) in the Ikaros gene encoding a transcription factor that regulates lymphocyte differentiation, and acts also as a tumor suppressor in T lymphocytes. The T29 cells were cultured in RPMI medium containing 25 mM Hepes pH 7.6, 1 mM sodium pyruvate, and 10% FCS. Human leukemia cell lines, Jurkat (acute T cell leukemia), HuT 78 (cutaneous T lymphocyte), RAJI (Burkitt lymphoma), and HL60 (promyelocytic leukemia) were cultured in RPMI-1640 medium (Gibco) containing GlutaMAX™, and supplemented with 10% heat-inactivated FBS as described before. The wild-type Chinese hamster ovary cell line (CHO K1) was purchased from American Type Culture Collection (ATCC; Rockville, MD). The CHO LRP1-null cell line (CHO-13-5-1) was kindly provided by D. Strickland [47]. They were cultured in Ham's F12K medium. All cells were cultured with 10% (v/v) heat inactivated (56°C, 30 min) fetal bovine serum (FBS) (Roche Molecular Biochemicals, Indianapolis, IN) and 50 international units/mL penicillin-streptomycin (Invitrogen). Cell death was monitored conveniently by uptake of the trypan blue dye due to plasma membrane permeability of dying and/or dead cells.
Figure 7 HB-19 and related multivalent Nucant pseudopeptides induce cell death associated with internucleosomal DNA fragmentation. A. Inhibition of cell multiplication by HB-19 and related multivalent Nucant pseudopeptides. […] Cell cultures (in triplicate) were monitored for viable cell number daily for 3 days. The histograms show the mean number of cells/ml ± SD of triplicate samples. The multiplication index of cells at day 3 compared to day 0 (the day of seeding) is given at the top of histogram. At 3 days post passage of T29 cells, the cell multiplication index of cells is 17.5-fold compared to 8.9-, 7.2-, 2.2-, and 1.7-fold in the presence of treatment with HB-19, N3, N6, and N7, respectively. B. N7 inhibits T29 cell multiplication in a dose dependent manner. T29 cells seeded at 100,000/ml in 2 ml in the absence (0 μM) or presence of N7 at various concentrations 2.5, 5, 10 and 20 μM were cultured for 3 days and the number of viable cells was determined at day 1, 2, and 3 post-seeding. The ordinate gives the cell number/ml (the mean of 2 samples) in each culture at day 1, 2, and 3 post-seeding. C. Partial cleavage of surface/cytoplasmic nucleolin. T29 cells were cultured for 45 min with 0 (for control; lanes C), 2 and 10 μM of N6 before preparation of cytoplasmic (that contains both surface and cytoplasmic nucleolin) and nuclear extract and analysis by immunoblotting using rabbit polyclonal antibodies that are directed against the first 26 (panel anti-Nt Ab) and the last 16 amino acids (panel anti-Ct Ab) of human nucleolin, respectively. The nuclear extracts were analyzed by immunoblotting using anti-Nt Ab (Methods). […]

[4] = system: human breast tumor cell xenografts; conditions: nude mice; cited from earlier work
Text: (§3) The importance of cell-surface nucleolin in cancer biology was recently highlighted by studies showing that ligands of nucleolin play critical role in tumorigenesis and angiogenesis. Accordingly, we recently reported that both of these events are suppressed by targeting surface nucleolin with the HB-19 pseudopeptide, a potent antagonist that forms an irreversible complex with surface nucleolin [9, 37]. By binding to the RGG domain of nucleolin, HB-19 prevents binding of growth factors to cells, triggers calcium entry into cells, inhibits MAP kinase activation, and down-regu ...

[5] = system: spontaneous melanoma; conditions: RET mice, treatment for several months; cited from earlier work
Text: as §3

[6] = system: T29; test: Cell death (trypan blue uptake); assay type: cell-based, murine; conditions: T29 cells, 0-20 μM, read-out: Cell death: IC50 24 hours post-passage
Method: as §2

[7] = system: melanoma TIII cell; test: Cell adhesion; assay type: cell-based, murine; conditions: after 5 hours of cell seeding, vs untreated control, mean of at least 2 independent experiments
[8] = system: TIII; test: Cell growth / proliferation (viable cell number); assay type: cell-based, murine; conditions: after 3 days of culture, vs untreated control, mean of at least 2 independent experiments
Method: as §2

[9] = target: nucleolin (cell-surface expressed nucleolin), human (human (endogenous in HeLa, CEM, MDA-MB-231, HuT 78 and other human cell lines)) (UniProt P19338)
[10] = system: TNF-α; test: TNF-α production by PBMC stimulated with heat-killed Staphylococcus aureus, ELISA; assay type: cell-based; conditions: Homo sapiens, PBMC + HKSA 10^8 particles/ml, 1 μg/ml, 20 hours post-stimulation, triplicate, read-out: degree of inhibition of TNF-α production
Method: (§4) Peripheral blood mononuclear cells (PBMC) from healthy donors were prepared by Ficoll-Hypaque density gradient centrifugation and suspended in RPMI 1640 medium containing 1% (v/v) of human serum AB (from Invitrogen). PBMC (10^6 cells/0.5 ml) in the absence or presence of 10 μM of each of HB-19, N3, N6, and N7, or 1 μg/ml of dexamethasone (Sigma) were stimulated with 10^8 particles/ml of Heat-killed Staphylococcus aureus (HKSA; InvivoGen, San Diego, USA). The cultures were incubated at 37°C in a 5% CO2 incubator, and the level of TNF-α and IL-6 was monitored in the culture supernatants by ELISA (R & D Systems) at 20 hours post-stimulation.
(§5) Figure 3 HB-19 and related Nucant pseudopeptides inhibit the production of TNF-α and IL-6 by peripheral blood lymphocytes. The production of pro-inflammatory cytokines in PBMC cultures stimulated with HKSA was carried out in triplicate in the absence (Control) or presence of 10 μM of each of HB-19, N3, N6, N7, N6L, or 1 μg/ml of dexamethasone (Dex.)(Methods). The level of TNF-α (section A) and IL-6 (section B) was monitored in culture supernatants by ELISA. The data presents the mean ± SD of triplicate samples. The degree of inhibition is indicated at the top of each histogram. Statistical significance: **p < 0.01, ***p < 0.001. […]

[11] = system: IL-6; test: IL-6 production by PBMC stimulated with heat-killed Staphylococcus aureus, ELISA; assay type: cell-based; conditions: Homo sapiens, PBMC + HKSA 10^8 particles/ml, 1 μg/ml, 20 hours post-stimulation, triplicate, read-out: degree of inhibition of IL-6 production
Method: as §4, §5

Chain of nucleolin (cell-surface expressed nucleolin), human (human (endogenous in HeLa, CEM, MDA-MB-231, HuT 78 and other human cell lines)) (P19338 whole entry): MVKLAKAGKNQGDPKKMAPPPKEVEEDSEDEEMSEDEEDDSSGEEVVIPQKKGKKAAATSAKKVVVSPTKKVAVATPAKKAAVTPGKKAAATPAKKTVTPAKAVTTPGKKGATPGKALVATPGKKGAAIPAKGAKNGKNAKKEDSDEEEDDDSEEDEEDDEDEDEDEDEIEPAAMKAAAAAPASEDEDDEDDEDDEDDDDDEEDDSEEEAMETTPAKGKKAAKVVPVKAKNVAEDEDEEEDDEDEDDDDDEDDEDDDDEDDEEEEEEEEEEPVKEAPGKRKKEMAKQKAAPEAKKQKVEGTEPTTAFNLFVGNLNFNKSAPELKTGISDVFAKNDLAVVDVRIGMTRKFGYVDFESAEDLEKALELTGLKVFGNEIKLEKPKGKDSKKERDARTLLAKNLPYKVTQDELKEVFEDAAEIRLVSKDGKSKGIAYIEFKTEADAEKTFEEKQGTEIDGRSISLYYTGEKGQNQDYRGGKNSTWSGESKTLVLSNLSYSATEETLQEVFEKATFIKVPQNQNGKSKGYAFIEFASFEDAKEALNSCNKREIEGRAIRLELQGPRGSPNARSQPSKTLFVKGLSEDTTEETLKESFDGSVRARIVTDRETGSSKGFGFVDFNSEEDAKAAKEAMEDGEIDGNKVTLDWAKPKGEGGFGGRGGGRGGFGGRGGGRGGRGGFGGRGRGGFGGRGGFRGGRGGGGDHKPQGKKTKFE

With “H2NLys-Lys-Lys-Gly-Pro-Lys-Glu-Lys-AhxCONH2 [HB-19, Surface nucleolin antagonist pseudopeptide presenting pentavalently the pseudo-tripeptide Lysψ(CH2N)-Pro-Arg coupled to a peptide template]” the MK entry [1] was “prevents MK entry”, the MK entry [2] was “not affected” and the IC50 ([3]; T29 cells, 0-20 μM, number of viable cells at 3 days post-treatment, read-out: Cell number: IC50 72 hours post-passage) was 20 µM. The “multiplication index of cells at day 3 compared to day 0” value [3] was 8.9 fold, the “progression of established human breast tumor cell xenografts” value [4] was “markedly suppresses the progression” and the “onset and frequency of spontaneous melanoma” value [5] was “delays significantly”. The “toxicity to normal tissue” value [5] was “no toxicity” and the IC50 [6] was greater than 20 µM.
For “Ac-Lys-Aib-Gly-Lys-Aib-Gly-Lys-Aib-Gly-Lys-Aib-Gly-Lys-Aib-Gly-CONH2 [Nucant N3, Presents pentavalently the pseudo-tripeptide Lysψ(CH2N)-Pro-Arg coupled to the polypeptide template containing Aib]”, the “% Inhibition of cell Adhesion” value ([7]; 5 μM) was “No effect”, the “% Inhibition of cell Adhesion” value ([7]; 10 μM) was 15% and the “% Inhibition of cell Adhesion” value ([7]; 20 μM) was 24%. For the same compound, the “multiplication index of cells at day 3 compared to day 0” value [3] was 7.2 fold, the IC50 [6] was greater than 20 µM and the “% Inhibition of cell Proliferation” value ([8]; 5 μM) was “No effect”. For the same compound, the “% Inhibition of cell Proliferation” value ([8]; 10 μM) was 10% and the “% Inhibition of cell Proliferation” value ([8]; 20 μM) was 36%.
With Nucant 7 pseudopeptide the inhibition of HIV-1 LAI entry into HeLa CD4+ (LTR-LacZ) cells, β-galactosidase activity at 48 h, 0.1-0.8 μM; activity against the pentavalent N3 and HB-19 [9] was greater than 2 fold.
In the case of Nucant 6 pseudopeptide, the inhibition of HIV-1 LAI entry into HeLa CD4+ (LTR-LacZ) cells, β-galactosidase activity at 48 h, 0.1-0.8 μM; activity against the pentavalent N3 and HB-19 [9] is reported as greater than 2 fold.
Nucant 6L pseudopeptide gave an inhibition of HIV-1 LAI entry into HeLa CD4+ (LTR-LacZ) cells, β-galactosidase activity at 48 h, 0.05-0.8 μM; activity against the pentavalent N3 and HB-19 [9] greater than 4 fold.
For C[C@@H]1C[C@H]2[C@@H]3CCC4=CC(=O)C=C[C@]4(C)[C@@]3(F)[C@@H](O)C[C@]2(C)[C@@]1(O)C(=O)CO [Dex., dexamethasone], the inhibition at 1 µg/mL [10] was 61% and the inhibition at 1 µg/mL [11] was 62%.
